Laboratory results: article PMC6530907 (Biochemistry, 2019)
Values after ≈ are worked out from the molar mass of the structure shown.

Assays:
MbtAtb (H10MbtA^opt) [1] = molecular target: T1, MbtAtb (H10MbtA^opt) (Mycobacterium tuberculosis, UniProt P71716); assay type: biochemical; settings: read-out: IC50 (H10MbtA^opt-dependent signal, salicyl-AMS fragments)
MbtAtb (H10MbtA^opt) [2] = molecular target: T1, MbtAtb (H10MbtA^opt); assay type: biochemical
Msm ΔEM-pMbtAtb = experiment: microbe, parasite or virus in culture; assay type: cell-based, Mycobacterium smegmatis; settings: for MIC potency compared to 1 (decrease): Fe-limiting media
Msm ΔE = experiment: microbe, parasite or virus in culture; assay type: cell-based, Mycobacterium smegmatis; settings: GASTD medium (Fe-limiting)
MbtAtb (H10MbtA^opt) [3] = molecular target: T1, MbtAtb (H10MbtA^opt); assay type: biochemical; settings: Kiapp increased linearly with [S]
Msm WT = experiment: Growth inhibition assay; assay type: cell-based, Mycobacterium smegmatis; settings: GASTD+Fe medium
Mtb [4] = settings: cited from earlier work
PPT-PNP coupling system = assay type: biochemical
[5] = mouse; cited from earlier work
Msm ΔM = assay type: cell-based, Mycobacterium smegmatis; settings: GASTD+Fe medium
mammalian cells = settings: cited from earlier work
Mtb [6] = settings: monotherapy at 5.6 or 16.7 mg/kg; cited from earlier work
MbtAtb = settings: cited from earlier work; for Ki: read-out: Kiapp
H10MbtA^opt = H10MbtA^opt (Mycobacterium tuberculosis, UniProt P71716); assay type: biochemical
Chain of H10MbtA^opt (P71716 whole entry, looked up): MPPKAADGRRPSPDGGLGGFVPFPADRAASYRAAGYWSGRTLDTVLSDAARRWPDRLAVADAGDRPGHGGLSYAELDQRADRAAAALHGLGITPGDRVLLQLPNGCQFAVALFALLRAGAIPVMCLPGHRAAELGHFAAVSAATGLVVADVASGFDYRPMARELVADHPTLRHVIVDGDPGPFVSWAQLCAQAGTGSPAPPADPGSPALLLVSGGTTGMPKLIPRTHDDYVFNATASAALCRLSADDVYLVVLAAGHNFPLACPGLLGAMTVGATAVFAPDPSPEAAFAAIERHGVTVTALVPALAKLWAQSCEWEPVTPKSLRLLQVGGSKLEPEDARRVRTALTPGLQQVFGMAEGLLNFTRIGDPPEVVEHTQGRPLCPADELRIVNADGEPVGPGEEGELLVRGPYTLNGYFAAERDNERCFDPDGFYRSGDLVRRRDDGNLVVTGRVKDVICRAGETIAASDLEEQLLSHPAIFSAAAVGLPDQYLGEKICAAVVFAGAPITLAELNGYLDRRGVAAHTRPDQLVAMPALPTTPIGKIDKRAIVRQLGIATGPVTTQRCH

T1 sequence (P71716 whole entry, looked up, the tested form may be a part): as the sequence (P71716 whole entry, looked up) above

O=C(NS(=O)(=O)O)c1ccccc1O [compound 8, salicyl-sulfamate]
IC50 (MbtAtb (H10MbtA^opt) [1]): ~1000 µM

salicyl-AMSNMe [4b]
improvement in Kiapp of 4b versus 4a (MbtAtb (H10MbtA^opt) [2]): 0.5 fold | MIC potency compared to 1 (decrease) (Msm ΔEM-pMbtAtb): indistinguishable

Nc1ncnc2c1ncn2[C@@H]1O[C@H](COS(=O)(=O)NC(=O)c2ccccc2O)[C@@H](O)[C@H]1O [compound 1, 5´-O-[N-salicylsulfamoyl]adenosine]
MIC (Msm ΔE): 0.5 to 1 µg/mL | MIC (Msm ΔE; Mycolicibacterium smegmatis): 0.5 to 1 µg/mL (≈ 1.07 to 2.14 µM) | inhibition mechanism with respect to both MbtAtb substrates (MbtAtb (H10MbtA^opt) [3]): competitive inhibition mechanism | MIC (Msm WT): >1000 µg/mL | mechanism of inhibition (kobs vs inhibitor concentration) (MbtAtb (H10MbtA^opt) [2]; linear kobs vs [I]): static, slow-onset mechanism of inhibition | MIC (Mtb [4]; Fe-limiting medium, comparable inoculum): 0.1 to 0.5 µg/mL | effect on the PPT-PNP coupling system (PPT-PNP coupling system): did not affect | doses with in vivo toxicity [5]: ≥ 16.7 mg/kg | MIC (Msm ΔM): >1000 µg/mL | MIC (Msm ΔEM-pMbtAtb; GASTD medium (Fe-limiting), listed as salicyl-AMS): 0.5 to 1.0 µg/mL | MIC (Msm ΔEM-pMbtAtb; GASTD+Fe medium (Fe-rich)): > 1,000 µg/ml | MIC (Msm ΔEM-pMbtAtb; Mycolicibacterium smegmatis, GASTD medium (Fe-limiting)): 0.5 to 1 µg/mL (≈ 1.07 to 2.14 µM) | MIC (Msm ΔEM-pMbtAtb; Mycolicibacterium smegmatis, GASTD+Fe medium (Fe-rich)): > 1000 µg/mL | cytotoxicity against mammalian cells (mammalian cells): not cytotoxic | Mtb growth in the mouse lung (Mtb [6]): significant reduction of Mtb growth in the mouse lung

CN(C)c1ncnc2c1ncn2C1OC(COS(=O)(=O)NC(=O)c2ccccc2O)C(O)C1O (stereo not shown) [compound 12, salicyl-6-N,N-diMe-AMS]
Mtb MIC (Mtb [4]): 50 µM | Ki (MbtAtb): 0.38 µM

Nc1ncnc2c1ncn2[C@@H]1O[C@H](COP(=O)(O)OP(=O)(O)OP(=O)(O)O)[C@@H](O)[C@H]1O [ATP]
KmATP (H10MbtA^opt): 13.0 ± 1.3 µM | kcatsal (ATP as the variable substrate) (H10MbtA^opt): 0.0193 ± 0.00067 s⁻¹

O=C(NS(=O)(=O)OCC1OC(n2cnc3c(=O)[nH]cnc32)C(O)C1O)c1ccccc1O (stereo not shown) [compound 11, salicyl-IMS]
Mtb MIC (Mtb [4]): > 100 µM | Ki (MbtAtb): 0.8 µM

CNc1ncnc2c1ncn2[C@@H]1O[C@H](COS(=O)(=O)NC(=O)c2ccccc2O)[C@@H](O)[C@H]1O [5a, salicyl-6-N-Me-AMS]
Kiapp higher than that of salicyl-AMS (1) (MbtAtb (H10MbtA^opt) [2]): ≈ 5.5 fold | decrease in tR compared with salicyl-AMS (1) (MbtAtb (H10MbtA^opt) [2]): ≈ 0.5 fold | increase in koff compared with salicyl-AMS (1) (MbtAtb (H10MbtA^opt) [2]): ≈ 2 fold | konapp lower than that of salicyl-AMS (1) (MbtAtb (H10MbtA^opt) [2]): ≈ 2.5 fold | MIC potency compared to 1 (decrease) (Msm ΔEM-pMbtAtb): no statistically significant difference

Nc1nc(-c2ccccc2)nc2c1ncn2C1OC(COS(=O)(=O)NC(=O)c2ccccc2O)C(O)C1O (stereo not shown) [3a, salicyl-2-Ph-AMS]
MIC potency compared to 1 (decrease) (Msm ΔEM-pMbtAtb): no statistically significant difference

COc1ncnc2c1ncn2[C@@H]1O[C@H](CNS(=O)(=O)NC(=O)c2ccccc2O)[C@@H](O)[C@H]1O [compound 6, salicyl-6-MeO-AMSN]
Kiapp higher than that of salicyl-AMS (1) (MbtAtb (H10MbtA^opt) [2]): 10 fold | decrease in tR compared with salicyl-AMS (1) (MbtAtb (H10MbtA^opt) [2]): ≈ 0.5 fold | increase in koff compared with salicyl-AMS (1) (MbtAtb (H10MbtA^opt) [2]): ≈ 2 fold | konapp lower than that of salicyl-AMS (1) (MbtAtb (H10MbtA^opt) [2]): 6 fold | MIC potency compared to 1 (decrease) (Msm ΔEM-pMbtAtb): 6 fold

Nc1nc(Nc2ccccc2)nc2c1ncn2C1OC(COS(=O)(=O)NC(=O)c2ccccc2O)C(O)C1O (stereo not shown) [3b, salicyl-2-NHPh-AMS]
MIC potency compared to 1 (decrease) (Msm ΔEM-pMbtAtb): no statistically significant difference

O=C(NS(=O)(=O)OC[C@H]1O[C@@H](n2cnc3c(NC4CC4)ncnc32)[C@H](O)[C@@H]1O)c1ccccc1O [5b, salicyl-6-N-c-Pr-AMS]
Kiapp higher than that of salicyl-AMS (1) (MbtAtb (H10MbtA^opt) [2]): ≈ 5.5 fold | decrease in tR compared with salicyl-AMS (1) (MbtAtb (H10MbtA^opt) [2]): ≈ 0.5 fold | increase in koff compared with salicyl-AMS (1) (MbtAtb (H10MbtA^opt) [2]): ≈ 2 fold | konapp lower than that of salicyl-AMS (1) (MbtAtb (H10MbtA^opt) [2]): ≈ 2.5 fold | MIC potency compared to 1 (decrease) (Msm ΔEM-pMbtAtb): 6 fold

O=C(O)c1ccccc1O [salicylic acid]
Kmsal (H10MbtA^opt): 0.31 ± 0.003 µM

Nc1ncnc2c1ncn2[C@@H]1O[C@H](CNS(=O)(=O)NC(=O)c2ccccc2O)[C@@H](O)[C@H]1O [4a, salicyl-AMSN]
MIC potency compared to 1 (decrease) (Msm ΔEM-pMbtAtb): no statistically significant difference

Nc1ncnc2c1ncn2[C@H]1C[C@H](O)[C@@H](COS(=O)(=O)NC(=O)c2ccccc2O)O1 [compound 2, salicyl-2´-dAMS]
worsening of the kinetic parameters relative to salicyl-AMS (1) (MbtAtb (H10MbtA^opt) [2]): ≤ 2 fold | decrease in Kiapp relative to salicyl-AMS (1) (MbtAtb; ATP-PPi assay): 0.5 fold | MIC potency compared to 1 (decrease) (Msm ΔEM-pMbtAtb): 6 fold
